# Measured values from article PMC5309861, “Mechanistic insight into the substrate specificity of 1,2-β-oligoglucan phosphorylase from Lachnoclostridium phytofermentans” (Scientific Reports, 2017).
# Target: T1, LpSOGP (Lachnoclostridium phytofermentans, UniProt A9KJS6)
# T1 construct: gene Cphy_0694
# T1 sequence (A9KJS6 1-1113): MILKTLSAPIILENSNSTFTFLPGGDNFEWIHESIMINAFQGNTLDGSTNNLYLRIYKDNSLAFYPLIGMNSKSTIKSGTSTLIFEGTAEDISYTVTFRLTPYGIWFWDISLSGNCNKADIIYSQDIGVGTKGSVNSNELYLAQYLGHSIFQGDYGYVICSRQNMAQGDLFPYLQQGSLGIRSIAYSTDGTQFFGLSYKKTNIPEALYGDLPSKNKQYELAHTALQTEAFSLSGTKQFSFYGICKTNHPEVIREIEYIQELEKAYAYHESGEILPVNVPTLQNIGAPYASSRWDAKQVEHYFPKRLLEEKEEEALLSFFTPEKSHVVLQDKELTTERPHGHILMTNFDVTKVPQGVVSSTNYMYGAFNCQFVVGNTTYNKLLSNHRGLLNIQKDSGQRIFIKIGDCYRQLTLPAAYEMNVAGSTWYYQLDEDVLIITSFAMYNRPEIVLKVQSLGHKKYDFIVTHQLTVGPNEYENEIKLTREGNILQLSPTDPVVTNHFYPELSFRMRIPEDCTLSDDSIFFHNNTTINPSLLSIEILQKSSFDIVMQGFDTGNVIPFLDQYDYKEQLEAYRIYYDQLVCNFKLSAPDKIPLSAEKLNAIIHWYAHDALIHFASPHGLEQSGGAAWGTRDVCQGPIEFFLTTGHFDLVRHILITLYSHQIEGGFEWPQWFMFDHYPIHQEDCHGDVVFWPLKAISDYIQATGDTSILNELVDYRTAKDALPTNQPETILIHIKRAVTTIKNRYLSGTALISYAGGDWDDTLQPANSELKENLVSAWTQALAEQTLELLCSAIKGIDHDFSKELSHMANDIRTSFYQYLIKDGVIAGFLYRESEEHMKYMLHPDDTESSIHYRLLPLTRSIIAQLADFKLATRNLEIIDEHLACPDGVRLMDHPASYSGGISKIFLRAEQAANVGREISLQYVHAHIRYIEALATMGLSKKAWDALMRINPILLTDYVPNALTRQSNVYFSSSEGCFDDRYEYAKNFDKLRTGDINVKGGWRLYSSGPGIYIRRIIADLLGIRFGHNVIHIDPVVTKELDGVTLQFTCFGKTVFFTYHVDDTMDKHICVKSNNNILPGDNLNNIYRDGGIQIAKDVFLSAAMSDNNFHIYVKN
# Details: phosphorolysis; pH 7.5, 30 °C; co-substrate oligosaccharide not stated
# Text: G1P release, coupled phosphoglucomutase / G6PDH assay, Michaelis-Menten fit on LpSOGP
smiles,measurement,value
"O=P(O)(O)O [Pi, inorganic phosphate]",Synthesis / kcat/Km / (s^-1 mM^-1),11 ± 1 mM
